In US20140287925A1, “SOLUTIONS OF CIPC AND OF A TERPENE OR OF A TERPENE OIL AND THEIR USES FOR THE ANTIGERMINATIVE TREATMENT OF BULBS OR TUBERS” (priority 2003, published 2014):

Key:
[1] = Solubility of CIPC (maximum concentration obtained in solvents); type: physicochemical; settings: in terpenes and/or terpene oils, clear solutions, at room temperature or even as low as 0° C.
Method: Moreover, CIPC is sparingly soluble in conventional solvents, and maximum CIPC concentrations of the order of 30% (weight/volume) are generally obtained. At best, concentrations of the order of about 54% at 180° C. have been obtained. This low solubility therefore implies the use of large quantities of solvent and/or of formulation in order to obtain the required quantities of active formula. Now, it is sought in general to limit the use of these solvents because of their own toxicity and/or of the danger involved in using them, in particular because of their low boiling points which cause high risks of inflammability.
It has now been discovered, and that is one of the subjects of the present invention, that terpenes and/or terpene oils have a high CIPC-dissolving power. In particular, the use of such terpenes and/or terpene oils makes it possible to obtain clear CIPC solutions and to reach CIPC concentrations greater than 50% by weight of CIPC relative to the total volume of the solution, at room temperature, or even temperatures as low as 0° C. Consequently, the formulations of the present invention make it possible to limit the quantity of formulated product to be used.

[2] = cited from earlier work

CC(C)OC(=O)Nc1cccc(Cl)c1 [CIPC, isopropyl (3-chlorophenyl)carbamate]
CIPC concentration reached [1]: greater than 50 % by weight of CIPC relative to the total volume of the solution | CIPC concentration obtained at best ([2]; conventional solvents, at 180° C.): about 54% | maximum CIPC concentration ([2]; in conventional solvents): ~30 % (weight/volume)
